# Data reported in PMC10890530, “Meirols A–C: Bioactive Catecholic Compounds from the Marine-Derived Fungus Meira sp. 1210CH-42” (Marine Drugs, 2024).
# Like-named read-outs stand apart in the source and are kept apart here.
# Key:
# [1] = tested on: RPMI-8402, T cell acute lymphocytic leukemia; assay: Cytotoxicity assay, RPMI-8402 blood cancer cell line; format: cell-based; details: Homo sapiens, 50% growth inhibitory concentration, triplicate, read-out: Cytotoxic Activity (GI50 ± SD, μM) RPMI-8402
# Protocol: (§1) NMR spectra were acquired with a Bruker AVANCE III 600 spectrometer (Bruker Biospin GmbH, Rheinstetten, Germany) with a 3 mm probe operating at 600 MHz (^1H) and 150 MHz (^13C). Chemical shifts were expressed in ppm with reference to the solvent peaks (δH 3.31 and δC 49.15 ppm for CD3OD). UV spectra were recorded with a Shimadzu UV-1650PC spectrophotometer (Shimadzu Corporation, Kyoto, Japan). IR spectra were obtained on an OPUS FT/IR-ALPHA II spectrophotometer (Bruker OPTIK GmbH & Co. KG, Ettlingen, Germany). Optical rotations were measured with a Rudolph analytical Autopol III S2 polarimeter (Rudolph Research Analytical, Hackettstown, NJ, USA). LR-ESIMS data were obtained with an ISQ EM mass spectrometer. HR-ESIMS data were obtained with a Waters SYNPT G2 Q-TOF mass spectrometer (Waters Corporation, Milford, MA, USA) at the Korea Basic Science Institute (KBSI) in Cheongju, Republic of Korea. ECD spectra were recorded with a JASCO J-1500 circular dichroism spectrometer (JASCO Corporation, Tokyo, Japan) at the Center for Research Facilities, Changwon National University, in Changwon, Republic of Korea. HPLC was performed using a BLS-Class pump (Teledyne SSI, Inc., State College, PA 16803, USA) with a Shodex RI-201H refractive index detector (Shoko Scientific Co., Ltd., Yokohama, Japan). Columns for HPLC were YMC-Triart C18 (250 mm × 10 mm, 5 μm), YMC-Triart C8 (250 mm × 10 mm, 5 μm), and YMC-CHIRAL PREP CD PM (250 mm × 4.6 mm, S-10 μm). RP silica gel (YMC-Gel ODS-A, 12 nm, S-75 μm) was used for open-column chromatography. Organic solvents were purchased as HPLC grade, and ultrapure waters were obtained from the Milipore Mili-Q Direct 8 system. The reagents used in the bioassay were purchased from Sigma-Aldrich and Tokyo Chemical Industry. Cancer cell lines were purchased from the Japanese Cancer Research Resources Bank (JCRB) (NUGC-3, JCRB Cell Bank/Cat. # JCRB0822), the DSMZ-German Collection of Microorganisms and Cell Cultures (RPMI-8402, DSMZ/Cat # ACC 290; WSU-DLCL2, DSMZ/Cat # ACC 575), and the American Type Culture Collection (ATCC) (PC-3, ATCC/Cat. # CRL-1435; MDA-MB-231, ATCC/Cat. # HTB-26; ACHN, ATCC/Cat. # CRL-1611; NCI-H23, ATCC/Cat. # CRL-5800; HCT-15, ATCC/Cat. # CCL-225; HL-60, ATCC/Cat. # CCL-240; Raji, ATCC/Cat # CCL-86; K562, ATCC/Cat # CCL-243; NALM6, ATCC/Cat # CRL-3273; U266, ATCC/Cat # TIB-196).
# (§2) The cytotoxic activities of 1–4 were measured using the CellTiter-Glo luminescent cell viability assay (Promega, Madison, WI, USA) and conducted by the […], as previously described. The luminescence signal was quantified using a GloMax-Multi Detection System (Promega, Madison, WI, USA), and GI50 values were determined utilizing a relative GI50 model in GraphPad Prism (GraphPad, San Diego, CA, USA). Doxorubicin was used as the positive control.
# α-glucosidase = α-glucosidase inhibitory activity assay (pNPG hydrolysis); format: biochemical; details: 50% inhibitory concentration; triplicate; read-out: α-Glucosidase Inhibitory Activity (IC50 ± SD)
# Protocol: The α-glucosidase inhibitory activity was determined by measuring the absorbance increase resulting from the hydrolysis of p-nitrophenyl-α-D-glucopyranoside (pNPG, TCI) by α-glucosidase at 405 nm using a microplate reader, according to the reference to previously reported literature. The 130 μL sample solution (in 0.1 mM PBS) with the 30 μL α-glucosidase solution (0.2 U/mL) was incubated at 37 °C for 10 min. Subsequently, 40 μL of 5 mM pNPG was added. The reaction mixture was further incubated at 37 °C for 20 min. The α-glucosidase inhibitory activity was determined using a microplate reader at 405 nm. The negative control was prepared by substituting PBS buffer for the sample in the same way as the test.
# [2] = tested on: NALM6, B cell acute lymphocytic leukemia; assay: Cytotoxicity assay, NALM6 blood cancer cell line; format: cell-based; details: triplicate, read-out: Cytotoxic Activity (GI50 ± SD, μM) NALM6
# Protocol: as §1, §2
# [3] = DPPH radical scavenging activity assay; details: half maximal effective concentration; triplicate; read-out: DPPH Radical Scavenging Activity (EC50 ± SD)
# Protocol: The DPPH radical scavenging activities of 1–4 were determined by the reported method. In a 96-well plate, 100 μL of sample solution (in MeOH) was mixed with 100 μL of DPPH solution (0.16 mM in MeOH), shaken several times, and then incubated at room temperature for 30 min. The absorbance at 517 nm was recorded. Ascorbic acid was used as the positive control, and the experiments were performed in triplicate.
# [4] = 50% growth inhibitory concentration
# [5] = Homo sapiens, NALM-6, 50% growth inhibitory concentration
Compound,GI50 [1],IC50 (α-glucosidase),"GI50 [2, 4]","GI50 [2, 5]",EC50 [3]
"O=C1CCc2c1ccc(O)c2O [Compound 1, 4,5-dihydroxyindan-1-one]",21 ± 0.47 µM,184 ± 2.93 µM,9.47 ± 0.41 µM,9.48 µM,7.47 ± 0.13 µM
"O=C1C[C@@H](O)c2c1ccc(O)c2O [Compound 3, meirol B]",> 30 µM,367.4 ± 3.01 µM,–,> 30 µM,6.01 ± 0.07 µM
"O=C1NCc2c1ccc(O)c2O [Compound 2, 4,5-dihydroxyisoindolin-1-one]",> 30 µM,199.7 ± 1.87 µM,29.6 ± 2.27 µM,29.4 µM,6.82 ± 0.06 µM
"O=C1c2ccc(O)c(O)c2C[C@@H]1O [Compound 4, meirol C]",> 30 µM,> 555 µM,–,> 30 µM,6.2 ± 0.12 µM
"COc1cccc2c1C(=O)c1c(O)c3c(c(O)c1C2=O)C[C@@](O)(C(=O)CO)C[C@@H]3O[C@H]1C[C@H](N)[C@H](O)[C@H](C)O1 [Doxorubicin, reference compound]",0.015 ± 0.0013 µM,–,–,0.003 ± 0.0006 µM,–
"O=C1O[C@H]([C@@H](O)CO)C(O)=C1O [Ascorbic acid, reference compound]",–,–,–,–,7.81 ± 0.25 µM
